Consider one molecule from patent US20220017516A1, “LOX INHIBITORS” (THE INSTITUTE OF CANCER RESEARCH: ROYAL CANCER HOSPITAL, priority 2018, published 2022).

Common to all, as to type: in vivo, mice
The subject of test [1] is MDA-MB-231 human breast adenocarcinoma. Kind of test: MDA-MB-231 xenografts, primary tumour volume. The settings on record: T/C of average tumour volume; 200 mg/kg po qd; p<0.05. Here is the method: (§1) All procedures involving animals were approved by the Animal Welfare and Ethical Review Body of the Institute of Cancer Research and Cancer Research UK Manchester Institute in accordance with National Home Office regulations under the Animals (Scientific Procedures) Act 1986 and according to the guidelines of the Committee of the National Cancer Research Institute Tumour size was determined by caliper measurements of tumour length, width and depth and volume was calculated as volume=0.5236×length×width×depth (mm).
MDA-MB-231 xenografts. […] Tumours and weights are measured twice weekly using calipers and the animals can be imaged using non invasive method by bioluminescence using IVIS 200 imaging machine, weekly using 150 mg/kg luciferin administrate intraperitoneal or subcutaneous. […] Frozen samples kept at −80 degree centigrade until being analyzed and the fixed samples stained according to desired marker.
(§2) For therapeutic efficacy assessment, the ratio of average tumour volume between compound treated and vehicle control treated (T/C) is calculated. […] The efficacy of LOX inhibitors described in this invention, as measured by T/C in breast cancer models is shown in Table 4 and is significant (p<0.05) for all the data presented.

The subject of test [2] is MMTV-PyMT mammary tumours. Kind of test: MMTV-PyMT transgenic mouse breast cancer model, primary tumour volume. The settings on record: T/C of average tumour volume; 200 mg/kg po qd; p<0.05. Here is the method: as §1
MMTV-PyMT (Guy et al, 1992) (FVB) female mice were randomized by non-statistical methods to LOX inhibitor treatment groups from day 70 post-birth, when animals had no detectable tumour. Mice were treated daily by oral gavage with LOX inhibitor in vehicle, or daily vehicle (5% DMSO/2.5% Tween20 in water) by oral gavage. Tumour size was determined unblinded by caliper measurements of tumour length, width and depth and volume was calculated as 0.5236×length×width×depth (mm). […]
as §2

The subject of test [3] is MMTV-PyMT lung metastases. The test is described as follows: MMTV-PyMT transgenic mouse breast cancer model, lung metastases quantification. The conditions noted are these: T/C of average lung metastases number; 200 mg/kg po qd; p<0.05. As to the method: MMTV-PyMT (Guy et al, 1992) (FVB) female mice were randomized by non-statistical methods to LOX inhibitor treatment groups from day 70 post-birth, when animals had no detectable tumour. Mice were treated daily by oral gavage with LOX inhibitor in vehicle, or daily vehicle (5% DMSO/2.5% Tween20 in water) by oral gavage. Tumour size was determined unblinded by caliper measurements of tumour length, width and depth and volume was calculated as 0.5236×length×width×depth (mm). In all experiments, mice were humanely killed and mammary tumours and lungs were collected when the primary tumours reached ethical limits or signs of ill health.
For lung metastases quantification, all mouse tissue samples were fixed in 10% formalin (Sigma) and embedded in paraffin. Samples were sectioned and hematoxylin and eosin (H&E) stained. Samples were imaged with a Leica SCN400 slide scanner. […] Lung metastases number was counted and area was measured using ImageScope. […] The ratio of average metastases surface between compound treated and vehicle control treated (T/C) is calculated. The ratio of average metastases numbers between compound treated and vehicle control treated (T/C) is also calculated. […] The antimetastatic efficacy of LOX inhibitors described in this invention, as measured by T/C in a model of breast cancer metastasising to lungs is shown in Table 4 and is significant (p<0.05) for all the data presented.

Each structure is given as a SMILES string.

As to `CCOc1ccc(N2C[C@@H]3C[C@H]2CN3C(=O)CS(=O)(=O)CCN)cc1` [drawing 226], the “MDA-MB-231 human breast adenocarcinoma - primary tumour (T/C)” value in test [1] stood at 0.54. The “MMT-PyMT breast transgenic model - primary tumour (T/C)” value in test [2] is 0.6. Moreover, in test [3], the “MMT-PyMT breast transgenic model - metastases a) Count (T/C)” value is given as “a) 0.14”.
